A value given as a limit tells only on which side of the number the result lay.

In the test the target is purified human TDO protein (Homo sapiens (Human), UniProt P48775). The experiment in a line: Enzymatic TDO assay. The class given is biochemical. On the procedure: Differently from the IDO activity assay, no methylene blue is added to the assay. The inhibitors were initially diluted in DMSO at 100 mM and were diluted in potassium phosphate 50 mM, added to the reaction mixture at final concentrations raging from 30 μM to 5 nM and preincubated with the enzyme for 5 min at 25° C. The reaction was started by addition of L-tryptophan to 20 μM and incubated 15 min at 37° C. The reaction was stopped by addition of 0.5 vol of 30% trichloroacetic acid and incubated 30 min at 60° C. to hydrolyze N-formylkynurenine to kynurenine. The reaction was centrifuged at 3400 g for 5 min to remove precipitated protein and the supernatant was reacted with 2% (w/v) of p-dimethylaminobenzaldehyde in acetic acid. The reaction was incubated 10 min at 25° C. and read at 480 nm in a spectrophotometer. Control samples with no TDO inhibitor, or with no TDO enzyme were used as controls to set the parameters for the non-linear regressions necessary for determination of the IC50 for each compound. Nonlinear regressions and determination of the IC50 values were performed using the GraphPad Prism 4 software.
Sequence of purified human TDO protein (P48775 whole entry): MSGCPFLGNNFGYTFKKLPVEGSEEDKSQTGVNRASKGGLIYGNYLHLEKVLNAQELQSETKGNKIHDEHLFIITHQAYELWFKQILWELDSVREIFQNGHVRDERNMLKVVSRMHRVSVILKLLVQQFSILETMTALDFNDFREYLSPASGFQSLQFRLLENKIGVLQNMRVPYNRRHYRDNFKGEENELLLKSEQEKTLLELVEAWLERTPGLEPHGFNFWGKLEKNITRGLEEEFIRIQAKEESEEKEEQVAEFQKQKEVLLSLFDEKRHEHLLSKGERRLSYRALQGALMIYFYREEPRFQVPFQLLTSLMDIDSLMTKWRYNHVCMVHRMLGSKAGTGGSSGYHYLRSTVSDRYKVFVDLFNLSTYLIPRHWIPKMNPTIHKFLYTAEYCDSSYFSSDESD
`O=C(CC1c2ccccc2-c2nncn21)C1CCCCC1` (stereo not drawn) [Compound 43, 2-(5H-[1,2,4]triazolo[3,4-a]isoindol-5-yl)-1-cyclohexylethan-1-one] registered an IC50 of over 10 µM.

The molecule `OC(CC1c2ccccc2-c2nncn21)C1CCCCC1` (stereo not drawn) [Compound 69, 2-(5H-[1,2,4]triazolo[3,4-a]isoindol-5-yl)-1-cyclohexylethan-1-ol] registered an IC50 of over 10 µM.

`O=C(CC1c2ccccc2-c2cnnn21)C1CCC(F)(F)CC1` (stereo not drawn) [Compound 54, 2-(8H-[1,2,3]triazolo[5,1-a]isoindol-8-yl)-1-(4,4-difluorocyclohexyl)ethan-1-one] returned an IC50 of over 10 µM.

One may read the IC50 as the concentration needed to halve the response being measured. Low readings indicate inhibition by little substance, high ones a need for much substance.

For the origin of these results see patent US9981973B2, “Tricyclic compounds as inhibitors of immunosuppression mediated by tryptophan metabolization” (NewLink Genetics Corporation, priority 2013, dated 2018).
